Assay results as given in ChEMBL document CHEMBL3507680, “University of Dundee, Gates Library screen for HepG2 cell viability”.

Test: Human HepG2 cell viability assay in 384 well format
Type: toxicity, cell-based
Set-up: dose 125 nL, time 70.5 hour; cytotoxicity at 70.5 h: concentration not given beside the values
Details: HepG2 cells, read-out: Inhibition

Row | SMILES | cytotoxicity at 70.5 h
1 | CC(=O)NCCNC(=O)CN1CCCCC1Cn1cncn1 (configuration not stated) | -8.39%
2 | c1cn(-c2ccc(CN3CCOC(Cn4cncn4)C3)cc2)cn1 (configuration not stated) | -7.67%
3 | Nc1cc2c(nn1)CCN(C(=O)CC1CCCCC1)C2 | -8.85%
4 | COc1c(C)cnc(CN2CCOC(Cn3cc(C)cn3)C2)c1C (configuration not stated) | 0.484%
5 | CCOc1ccnc(N2CCCN(C(=O)c3cc[nH]c3C)CC2)n1 | 17.6%
6 | Cn1cc(C2CCCN2Cc2cscn2)cn1 (configuration not stated) | -2.56%
7 | CS(=O)(=O)NCCN1CCCC1c1ccc(Cl)cc1 (configuration not stated) | 12%
8 | Cc1nn(C)c(N2CCOCC2)c1CNC1COc2ccccc2C1 (configuration not stated) | 27.5%
9 | CN(C)S(=O)(=O)CCCN1CCCC1c1noc(C2CC2)n1 (configuration not stated) | 22.8%
10 | Clc1snnc1CN1CCCC1Cn1cncn1 (configuration not stated) | 53.6%
11 | COc1cc(C(=O)Nc2nc(C)no2)ccc1OC1CCCC1 | -4.68%
12 | Cc1nn(C)c(N2CCOCC2)c1CNC1CCC(O)CC1 (configuration not stated) | -1.76%
13 | Cc1nn(C)c(N2CCOCC2)c1CNC1CCN(C2CC2)CC1 | -6.05%
14 | CC(NC(=O)NCCCc1n[nH]c(N)c1C#N)c1ccc(F)c(F)c1 (configuration not stated) | -2.56%
15 | CCOc1ncccc1NC(=O)NCC(C)O (configuration not stated) | -3.67%
16 | COc1cc(C(=O)Nc2nc(C)no2)cc(OC)c1Br | 27.4%
17 | CCn1cc(NC(=O)NCC(O)COc2ccccc2)cn1 (configuration not stated) | -7.02%
18 | Cc1nn(C)c(N2CCOCC2)c1CNC1CCc2ccccc21 (configuration not stated) | -7.04%
19 | CCCNC(=O)C1CCN(Cc2csc(CC)n2)CC1 | 0.277%
20 | Cc1ccc(C(=O)N(C2CC2)C2CC(=O)NC2=O)cc1F (configuration not stated) | -3.53%
21 | CCN1CCN(C2CCN(Cc3nc(C4CC4)no3)CC2)C1=O | -5.25%
22 | CCCNC(=O)C1CCN(Cc2csc(C(C)C)n2)CC1 | 16.4%
23 | O=C1CC(N(C(=O)c2ccc(Cl)c(Cl)c2)C2CC2)C(=O)N1 (configuration not stated) | -4.14%
24 | Cc1ccc(-c2nc(CN3CCOC(Cn4cccn4)C3)no2)cc1 (configuration not stated) | -4.16%

Row | SMILES | cytotoxicity at 70.5 h
25 | CCc1nc(CN(C(C)=O)C2CCN(Cc3csc(C)n3)C2)no1 (configuration not stated) | -2.47%
26 | Cc1cc(C(=O)NS(C)(=O)=O)c(C)n1-c1ccccc1 | -13.1%
27 | O=C(CCN1C(=O)CCC1=O)NCC1(c2c(F)cccc2F)CCCC1 | -11.2%
28 | COc1cccc(-n2c(C)cc(C(=O)NCCCC(N)=O)c2C)c1 | -10.3%
29 | COc1cccc(-n2c(C)cc(C(=O)NC(C)(C)C(N)=O)c2C)c1 | -15.2%
30 | COc1ccc(C2=CCN(C(=O)CN(C)Cc3ccco3)CC2)cc1 | -11.2%
31 | Cc1cc(CN2CCN(CC(O)c3cccc(F)c3)CC2)no1 (configuration not stated) | -4.25%
32 | Cc1cc(CN2CCN(CC(O)c3ccc(Cl)cc3)CC2)no1 (configuration not stated) | -11.9%
33 | Cc1cnn(CC2CN(c3nc4ccccc4o3)CCO2)c1 (configuration not stated) | 16.4%
34 | Cc1cc(NC(=O)c2ccc(-n3ncc(C#N)c3N)cc2)n(C)n1 | -8.66%
35 | Cc1cccnc1NC(=O)c1ccc(-n2ncc(C#N)c2N)cc1 | -4.45%
36 | COc1cccc2cc(CNC(=O)N3CCOC(C)(C)C3)oc12 | 14%
37 | c1ccc(OCCNC2CCCN(Cc3noc(C4CC4)n3)C2)cc1 (configuration not stated) | -7.17%
38 | Cc1nc(C)n(CC2CCCCN2CCOc2ccc(C#N)cc2)n1 (configuration not stated) | -9.43%
39 | Cc1cc(C)n(C2CCCN(C(=O)CCOc3ccccc3F)C2)n1 (configuration not stated) | -9.17%
40 | COc1cccc2cc(CNC(=O)N3CCS(=O)(=O)CC3)oc12 | 12.1%
41 | COc1cccc2cc(CNC(=O)N3CCC(N4CCCC4)C3)oc12 (configuration not stated) | -4.76%
42 | CC(=O)c1cccc(OCC(=O)NS(=O)(=O)c2cccs2)c1 | -6.58%
43 | CCc1n[nH]c(C2CN(C(=O)c3cc4c(s3)CCC4)CCO2)n1 (configuration not stated) | -4.28%
44 | Brc1cccc(-c2nnc(CNCCn3cccn3)o2)c1 | -10.8%
45 | CC(NC(=O)NCCn1ccnc1)c1ccc2c(c1)OCCO2 (configuration not stated) | -14.3%
46 | Brc1ccccc1-c1nnc(CNCCn2cccn2)o1 | 12.2%
47 | Clc1cccc(Cl)c1-c1nnc(CNCCn2cccn2)o1 | -4.1%
48 | Cc1ccccc1C1(CNC(=O)CCN2C(=O)CCC2=O)CC1 | -12.8%

Row | SMILES | cytotoxicity at 70.5 h
49 | CN1CCOC(CNCc2coc(-c3cccc(Cl)c3)n2)C1 (configuration not stated) | -0.236%
50 | Cc1ccc(C(CNC(=O)c2c(C)noc2C(C)C)N(C)C)cc1 (configuration not stated) | -4.44%
51 | CCN1CCN(C(=O)c2cnc3c(cnn3C3CCCC3)c2)CC1 | -6.55%
52 | CN1CCOC(CNCc2cccc(OC(F)(F)F)c2)C1 (configuration not stated) | -11.5%
53 | CC1CN(C)CCN1C(=O)c1cnc2c(cnn2C2CCCC2)c1 (configuration not stated) | -2.54%
54 | Cc1cnn(CC2CCCN2C(=O)c2sccc2-n2cnnn2)c1 (configuration not stated) | -4.41%
55 | O=C(CCc1ccccn1)N1CCCC(n2cncn2)C1 (configuration not stated) | -13.6%
56 | Cc1noc(C)c1C(=O)NCC(c1ccsc1)N(C)C (configuration not stated) | -8.5%
57 | COc1ccc(NC(=O)C2CC(=O)N(C)C2)cn1 (configuration not stated) | -5.38%
58 | Cc1cc(NC(=O)NCC(C(C)C)N2CCOCC2)n(C)n1 (configuration not stated) | -6.55%
59 | Cc1cc(C(=O)NCC(c2ccsc2)N(C)C)no1 (configuration not stated) | -5.66%
60 | CCOc1ccc(C#N)cc1NCC(=O)NC(=O)NC | -3.9%
61 | Cc1cc(C)n(CC2CCCN2C(=O)c2cccc3[nH]ncc23)n1 (configuration not stated) | -8.53%
62 | CC1CCCN(Cc2csc(-c3ncccn3)n2)CC1 (configuration not stated) | 9.27%
63 | Nc1nc(CN2CCOC(Cn3cncn3)C2)nc2ccccc12 (configuration not stated) | -3.11%
64 | Cc1nc(C)n(C2CCCN(C(=O)c3ccc4c(c3)COC4)C2)n1 (configuration not stated) | 0.389%
65 | Cc1nc(CN2CCCC(N(C)CCc3ccncc3)C2)no1 (configuration not stated) | 17.8%
66 | CC(C)=CCN(C)C1CCCN(Cc2noc(C)n2)C1 (configuration not stated) | 21.1%
67 | Cc1ccc(-c2cc(CNC(=O)N3CCOC(C)C3)on2)cc1 (configuration not stated) | -6.72%
68 | CC(=O)NC1CCCN(C(=O)Nc2cnc3c(cnn3C(C)C)c2)C1 (configuration not stated) | -2.01%
69 | O=C(NC1CCS(=O)(=O)C1)N1CCN(c2cnccn2)CC1 (configuration not stated) | -7.1%
70 | COc1cc(CNCc2ccc(C(C)O)cc2)cc2c1OCO2 (configuration not stated) | 44.3%
71 | O=C(C1CCS(=O)(=O)C1)N1CCN(c2cnccn2)CC1 (configuration not stated) | 13%
72 | O=C(CCN1C(=O)CCC1=O)Nc1cnn(-c2ccccc2Cl)c1 | 10%

Row | SMILES | cytotoxicity at 70.5 h
73 | O=C(c1cc2c(s1)CCC2)N1CCCCC1Cn1cccn1 (configuration not stated) | -3.46%
74 | CCc1nc(C2CCCN(C(=O)c3cccc4cn[nH]c34)C2)no1 (configuration not stated) | 3.52%
75 | COc1c(C2CCCN2Cc2cc(C)no2)c(C)nn1C (configuration not stated) | -9.4%
76 | COc1c(C2CCCN2CC(=O)Nc2cc(C)no2)c(C)nn1C (configuration not stated) | -10.7%
77 | Cc1nc(C2CCCN2CC(=O)NCCc2ccsc2)no1 (configuration not stated) | -2.7%
78 | COc1cccc(CCNC(=O)CN2CCCC2c2noc(C)n2)c1 (configuration not stated) | -6.83%
79 | CCS(=O)(=O)c1ccccc1N1CCC(NC(=O)c2ccc[nH]2)CC1 | -1.59%
80 | Cc1ccc(C(=O)NS(=O)(=O)c2cc(Cl)ccc2Cl)c(=O)[nH]1 | -1.03%
81 | CC(C)c1nc2c(n1C)CCN(Cc1nc(-c3cccs3)no1)C2 | -9.62%
82 | Cc1csc(N2CCCN(C(=O)C(C)n3ccnc3)CC2)n1 (configuration not stated) | -3.25%
83 | CCc1ncc(C(=O)N2CCCCC2Cn2cccn2)s1 (configuration not stated) | -7.11%
84 | CCN1CCN(C(=O)C(C)N2CCN(Cc3nccn3C)CC2)CC1 (configuration not stated) | 0.843%
85 | CN1CCN(C(=O)c2ccc(=O)n(C)c2)Cc2ccccc21 | -2.39%
86 | CN(Cc1ccncc1)CC(c1cccs1)N1CCOCC1 (configuration not stated) | 36%
87 | CCc1nc(C2CCCN(C(=O)c3cccc4c3ccn4C)C2)no1 (configuration not stated) | -4.32%
88 | CCn1ccnc1CN1CCN(C(C)C(=O)N2CCC(C)CC2)CC1 (configuration not stated) | 3.72%
89 | Cc1ccc(-c2noc(CN3CCOC(Cn4cncn4)C3)n2)cc1 (configuration not stated) | -7.15%
90 | COCCN1CCN(CCCS(=O)(=O)c2ccccc2)CC1C (configuration not stated) | 0.059%
91 | CN(C)C(=O)Cc1nc(CN2CCn3c(nnc3C3CC3)C2)cs1 | -18.5%
92 | CC(=O)N(Cc1noc(C2CC2)n1)C1CCN(Cc2nccn2C)C1 (configuration not stated) | -5.66%
93 | c1sc(C2CCCC2)nc1CN1CCn2c(nnc2C2CC2)C1 | 4.56%
94 | CC(C)c1ncc2c(n1)CN(Cc1nc(Cc3ccccc3)no1)CC2 | -24.3%
95 | CC(C)c1ncncc1C(=O)N1CCCN(Cc2cccs2)CC1 | -18.9%
96 | COC(=O)c1cccc(NC(=O)CCn2nc(-c3cccs3)oc2=O)c1 | 0.767%

Row | SMILES | cytotoxicity at 70.5 h
97 | O=C(NCCNc1ncccn1)C1CCN(c2ncccn2)CC1 | -10.8%
98 | CC(NC(=O)CCC(=O)c1cccs1)c1nnc2n1CCCCC2 (configuration not stated) | -15.6%
99 | Cc1ccc(N(C)C2CCN(C(=O)CCc3ccco3)CC2)nn1 | -11.8%
100 | O=C1NCCN1C1CCCN(Cc2nnc(-c3ccc(F)cc3)o2)C1 (configuration not stated) | -21.9%
101 | CNC(=O)c1cccc(NC(=O)Cn2nc(-c3cccs3)oc2=O)c1 | 20.9%
102 | Cc1ccc(NC2CCN(C(=O)CCNS(C)(=O)=O)CC2)nn1 | -19%
103 | NC(=O)COc1cccc(C(=O)N2CCCC(n3ccnc3)C2)c1 (configuration not stated) | -14.8%
104 | CCc1nc(C2CCCN2C(=O)CCc2cccs2)no1 (configuration not stated) | -5.42%
105 | CCOc1cc(C(=O)N2CCCC(n3cncn3)C2)ccc1C (configuration not stated) | -20.7%
106 | CCc1nc(C2CCCN2C(=O)CCc2ccc3c(c2)OCO3)no1 (configuration not stated) | -24.9%
107 | CC1COCCN1Cc1nc(-c2cccc(Br)c2)no1 (configuration not stated) | 13.8%
108 | Cc1ccccc1C1(C(=O)NCCN2CCCC2)CCOCC1 | -13.9%
109 | Cc1noc(C(C)N2CCN(CCCN3CCCC3=O)CC2)n1 (configuration not stated) | -11.4%
110 | Cc1ccccc1CNC(=O)CN1CCN(Cc2nccn2C)CC1 | -20.5%
111 | Cc1cnn(CC2CCCN2Cc2ncc(-c3ccccc3)o2)c1 (configuration not stated) | -18.8%
112 | Cc1nc(C)n(CC2CCCN(Cc3cccc(C#N)c3)C2)n1 (configuration not stated) | -15.1%
113 | COc1c(CNCc2cccc(Cn3ccnc3)c2)c(C)nn1C | -1.14%
114 | Cn1ccc(C(=O)N2CCN(c3ncccn3)CC2)cc1=O | -20.4%
115 | Cn1cnc(S(=O)(=O)NCCN2CCCCCC2=O)c1Cl | 14.4%
116 | Cc1ccc2c(c1)CCC2NCc1c(C)nn(C)c1N1CCOCC1 (configuration not stated) | -1.48%
117 | COc1c(CNCc2cccc(CN(C)C)c2)c(C)nn1C | -12.7%
